Assays:
[1] = Partition coefficient (logD) (octanol/borax buffer); format: physicochemical
[2] = biological target: Histamine H2 receptor (Cavia porcellus) (UniProt P47747); assay: Histamine H2 receptor blocking activity was determined in the isolated guinea pig right atrium against histamine stimulated tachycardia; format: tissue-based; settings: Cardiac atrium
Chain of Histamine H2 receptor (Cavia porcellus) (P47747 whole entry): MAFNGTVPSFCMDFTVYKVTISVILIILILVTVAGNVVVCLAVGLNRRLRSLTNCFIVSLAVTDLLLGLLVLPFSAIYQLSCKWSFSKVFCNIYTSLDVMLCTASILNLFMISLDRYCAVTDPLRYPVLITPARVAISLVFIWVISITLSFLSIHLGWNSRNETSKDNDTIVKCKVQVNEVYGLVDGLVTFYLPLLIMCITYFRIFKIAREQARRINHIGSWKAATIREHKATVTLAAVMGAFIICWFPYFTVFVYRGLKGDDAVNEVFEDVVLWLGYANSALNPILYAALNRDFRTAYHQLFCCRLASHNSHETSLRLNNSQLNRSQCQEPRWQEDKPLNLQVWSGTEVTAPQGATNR

Row | logD [1] | -Log KB [2] | SMILES
1 | -0.08 | 4.23 | C/N=c1\c(O)c(O)\c1=N\CCSCc1[nH]cnc1C
2 | -0.5 | 4.21 | Cc1[nH]cnc1CSCCNC1=NC(=O)CN1
3 | – | 6.04 | CNC(=S)NCCSCc1[nH]cnc1C
4 | -0.4 | 5.85 | CN/C(=C/[N+](=O)[O-])NCCSCc1[nH]cnc1C
5 | 1.04 | 7.31 | Cc1[nH]cnc1CSCCNc1[nH]ccc1[N+](=O)[O-]
6 | -0.2 | 6.44 | Cc1[nH]cnc1CSCCNc1nccc(O)c1[N+](=O)[O-]
7 | 0.8 | 4.8 | Cc1[nH]cnc1CSCCNc1cc(O)ccn1

Further lines, the molecule ahead of its results:

Row | SMILES | logD [1] | -Log KB [2]
8 | CNC(=O)NCCSCc1[nH]cnc1C | -0.06 | 4.69
9 | Cc1[nH]cnc1CSCCNC1=C([N+](=O)[O-])CCN1 | -0.87 | 6.31
10 | CNC(=N[N+](=O)[O-])NCCSCc1nc[nH]c1C | 0.13 | –
11 | C/N=C(\S)NCCSCc1[nH]cnc1C [METIAMIDE] | 0.55 | –
12 | Cc1[nH]cnc1CSCCNc1nccc(O)n1 | 0.02 | 5.13
13 | Cc1[nH]cnc1CSCCNc1ccnc(O)n1 | -0.4 | < 4.5
14 | C/N=C(/NCCSCc1[nH]cnc1C)N[N+](=O)[O-] | – | 5.84
15 | Cc1[nH]cnc1CSCCNC1=NCCS(=O)(=O)N1 | -0.74 | 4.57
16 | Cc1[nH]cnc1CSCCNc1cccc(O)n1 | 0.79 | < 4
